From US11446287B2, “Compounds and methods for EP300 or CBP modulation and indications therefor” (Opna Immuno-Oncology SA, priority 2019, dated 2022) come the findings set out here.

The target of this experiment is T1, Recombinant human EP300 containing the bromodomain (EP300-BD (1040-1161)) (Homo sapiens, UniProt Q09472).
T1 construct: Recombinant human EP300 bromodomain (EP300-BD (1040-1161)); made in house; host or cells: E. coli BL21-CodonPlus (DE3), modified pET vector
T1 sequence (Q09472 1040-1161): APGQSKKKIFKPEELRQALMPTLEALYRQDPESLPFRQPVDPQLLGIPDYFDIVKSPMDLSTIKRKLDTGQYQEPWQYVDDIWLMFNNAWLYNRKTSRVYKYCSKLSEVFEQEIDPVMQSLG
Briefly: EP300 Alphascreen binding assay. The method in brief:
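Displacement of a biotinylated acetyl-K56 histone H3 peptide from the N-His bromodomain construct (1040-1161) measured by AlphaScreen proximity, beads at 7.5 μg/ml final, read 60 min after addition. Protein, peptide and compound first incubated 1 h at room temperature, pH 7.5 HEPES buffer; IC50 by four-parameter logistic fit.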
As usually defined, the IC50 is the concentration needed to halve the response being measured. As to `Cc1noc(C)c1-c1cnc2c(c1)c(-c1ccc(C(=O)O)cc1OC(F)(F)F)cn2-c1cc(F)ccc1F` [P-0233, 4-(1-(2,5-difluorophenyl)-5-(3,5-dimethylisoxazol-4-yl)-1H-pyrrolo[2,3-b]pyridin-3-yl)-3-(trifluoromethoxy)benzoic acid], the IC50 lay within 0.1 to 1000 nM.
In the case of `Cc1noc(C)c1-c1cnc2c(-c3ccc(C(=O)O)cc3F)c(C(F)(F)F)n([C@@H](C)c3ccccn3)c2c1` [P-0234, (S)-4-(6-(3,5-dimethylisoxazol-4-yl)-1-(1-(pyridin-2-yl)ethyl)-2-(trifluoromethyl)-1H-pyrrolo[3,2-b]pyridin-3-yl)-3-fluorobenzoic acid], the IC50 lay within 0.1 to 1000 nM.
The value for `Cc1cc(C(=O)O)ccc1-c1c(C(F)(F)F)n([C@@H](C)c2ccccn2)c2cc(-c3c(C)noc3C)cnc12` [P-0235, (S)-4-(6-(3,5-dimethylisoxazol-4-yl)-1-(1-(pyridin-2-yl)ethyl)-2-(trifluoromethyl)-1H-pyrrolo[3,2-b]pyridin-3-yl)-3-methylbenzoic acid] was 0.1 to 1000 nM; that for `COc1cc(C(=O)O)ccc1-c1c(C(F)(F)F)n([C@@H](C)c2ccccn2)c2cc(-c3c(C)noc3C)cnc12` [P-0236, (S)-4-(6-(3,5-dimethylisoxazol-4-yl)-1-(1-(pyridin-2-yl)ethyl)-2-(trifluoromethyl)-1H-pyrrolo[3,2-b]pyridin-3-yl)-3-methoxybenzoic acid] was 0.1 to 1000 nM.
The result for `Cc1noc(C)c1-c1cnc2c(-c3cn(C)nc3C3CC3)c(C(F)(F)F)n([C@@H](C)c3ccccn3)c2c1` [P-0237, (S)-4-(3-(3-cyclopropyl-1-methyl-1H-pyrazol-4-yl)-1-(1-(pyridin-2-yl)ethyl)-2-(trifluoromethyl)-1H-pyrrolo[3,2-b]pyridin-6-yl)-3,5-dimethylisoxazole] reads 0.1 to 1000 nM; that for `Cc1noc(C)c1-c1cnc2c(-c3cc(C(=O)O)ccc3F)c(C(F)(F)F)n([C@@H](C)c3ccccn3)c2c1` [P-0238, (S)-3-(6-(3,5-dimethylisoxazol-4-yl)-1-(1-(pyridin-2-yl)ethyl)-2-(trifluoromethyl)-1H-pyrrolo[3,2-b]pyridin-3-yl)-4-fluorobenzoic acid], 0.1 to 1000 nM; that for `COc1ccc(C(=O)O)cc1-c1c(C(F)(F)F)n([C@@H](C)c2ccccn2)c2cc(-c3c(C)noc3C)cnc12` [P-0239, (S)-3-(6-(3,5-dimethylisoxazol-4-yl)-1-(1-(pyridin-2-yl)ethyl)-2-(trifluoromethyl)-1H-pyrrolo[3,2-b]pyridin-3-yl)-4-methoxybenzoic acid], 0.1 to 1000 nM.
The value for `Cc1noc(C)c1-c1cnc2c(-c3cc(F)cc(C(=O)O)c3)c(C(F)(F)F)n([C@@H](C)c3ccccn3)c2c1` [P-0240, (S)-3-(6-(3,5-dimethylisoxazol-4-yl)-1-(1-(pyridin-2-yl)ethyl)-2-(trifluoromethyl)-1H-pyrrolo[3,2-b]pyridin-3-yl)-5-fluorobenzoic acid] was 0.1 to 1000 nM; that for `Cc1noc(C)c1-c1cnc2c(-c3cc(Cl)cc(C(=O)O)c3)c(C(F)(F)F)n([C@@H](C)c3ccccn3)c2c1` [P-0241, (S)-3-chloro-5-(6-(3,5-dimethylisoxazol-4-yl)-1-(1-(pyridin-2-yl)ethyl)-2-(trifluoromethyl)-1H-pyrrolo[3,2-b]pyridin-3-yl)benzoic acid] was 0.1 to 1000 nM.
Turning to `Cc1noc(C)c1-c1cnc2c(-c3ccc(C(=O)O)c(F)c3)c(C(F)(F)F)n([C@@H](C)c3ccccn3)c2c1` [P-0242, (S)-4-(6-(3,5-dimethylisoxazol-4-yl)-1-(1-(pyridin-2-yl)ethyl)-2-(trifluoromethyl)-1H-pyrrolo[3,2-b]pyridin-3-yl)-2-fluorobenzoic acid], the IC50 is 1000 to 8000 nM.
